From ChEMBL document CHEMBL1132968, “Substituent effects on the antibacterial activity of nitrogen-carbon-linked (azolylphenyl)oxazolidinones with expanded activity against the fastidious gram-negative organisms Haemophilus influenzae and Moraxella catarrhalis” (2000)
≈ marks a conversion by molar mass, not a printed value.

Legend:
Assay type in all cases: functional
Staphylococcus aureus [1] = experiment: Inhibitory activity against Methicillin-susceptible Staphylococcus aureus UC9213
Moraxella catarrhalis = experiment: Inhibitory activity against Moraxella catarrhalis UC30610
Mus musculus [2] = experiment: Dose required to cure 50% of Staphylococcus aureus infected mice when administered orally administered; settings: po
Enterococcus faecalis = experiment: Inhibitory activity against Enterococcus faecalis UC9217
Streptococcus pneumoniae = experiment: Inhibitory activity against Streptococcus pneumoniae UC9912
Haemophilus influenzae = experiment: Inhibitory activity against Haemophilus influenzae UC30063
Mus musculus [3] = experiment: Dose required to cure 50% of Staphylococcus aureus infected mice in the presence of eperezolid when administered orally;vlaue ranges from 1.9-6.6; settings: po
Staphylococcus aureus [4] = experiment: Inhibitory activity against Methicillin-resistant Staphylococcus aureus UC6685
[5] = test system: Staphylococcus epidermidis; experiment: Inhibitory activity against Methicillin-resistant Staphylococcus epidermidis UC12084
Mus musculus [6] = experiment: Dose required to cure 50% of Staphylococcus aureus infected mice in the presence of eperezolid when administered orally; settings: po
Mus musculus [7] = experiment: Dose required to cure 50% of Staphylococcus aureus infected mice when administered orally; settings: po
Mus musculus [8] = experiment: Dose required to cure 50% of Staphylococcus aureus infected mice when orally administered; value ranges from 7.9-32.5; settings: po
Mus musculus [9] = experiment: Dose required to cure 50% of Staphylococcus aureus infected mice in the presence of vancomycin when orally administered; settings: po
Mus musculus [10] = experiment: Dose required to cure 50% of Staphylococcus aureus infected mice in the presence of eperezolid when orally administered.; settings: po
Mus musculus [11] = experiment: Dose required to cure 50% of Staphylococcus aureus infected mice when administered orally;; settings: po
Mus musculus [12] = experiment: Dose required to cure 50% of Staphylococcus aureus infected mice in the presence of eperezolid when administered orally; value ranges from 4.0-26.7; settings: po
Mus musculus [13] = experiment: Dose required to cure 50% of Staphylococcus aureus infected mice when administered orally; value ranges from 5.7-14.5; settings: po
Mus musculus [14] = experiment: Dose required to cure 50% of Staphylococcus aureus infected mice in the presence of eperezolid when administered orally; value ranges from 2.9-7.1); settings: po
Mus musculus [15] = experiment: Dose required to cure 50% of Staphylococcus aureus infected mice when orally administered; value ranges from 4.3-13.3; settings: po
Mus musculus [16] = experiment: Dose(orally administered) required to cure 50% of Staphylococcus aureus infected mice in the presence of eperezolid when orally administered; value ranges from 2.2-6.1; settings: po
Mus musculus [17] = experiment: Dose required to cure 50% of Staphylococcus aureus infected mice in the presence of vancomycin when administered orally; value ranges from 1.43-3.5; settings: po
Mus musculus [18] = experiment: Dose required to cure 50% of Staphylococcus aureus infected mice when administered orally; value ranges from 5.5-22.1; settings: po
Mus musculus [19] = experiment: Dose required to cure 50% of Staphylococcus aureus infected mice when administered orally.; settings: po
Mus musculus [20] = experiment: Dose(orally administered) required to cure 50% of Staphylococcus aureus infected mice in the presence of eperezolid when administered orally; value ranges from 0.8-2.3; settings: po
Mus musculus [21] = experiment: Dose required to cure 50% of Staphylococcus aureus infected mice in the presence of vancomycin when administered orally; value ranges from 2.5-6.4; settings: po
Mus musculus [22] = experiment: Dose required to cure 50% of Staphylococcus aureus infected mice when administered orally; value ranges from 1.4-3.8; settings: po
Mus musculus [23] = experiment: Dose required to cure 50% of Staphylococcus aureus infected mice when administered orally; value ranges from 2.9-8.5; settings: po
Mus musculus [24] = experiment: Dose(orally administered) required to cure 50% of Staphylococcus aureus infected mice; settings: po

CO/N=C/c1cn(-c2ccc(N3C[C@H](CNC(C)=O)OC3=O)cc2F)nn1
MIC (Staphylococcus aureus [1]): 4 µg/mL (≈ 10.6 µM) | MIC (Moraxella catarrhalis): 16 µg/mL (≈ 42.5 µM) | ED50 (Mus musculus [2]): 8.6 mg/kg/day | MIC (Enterococcus faecalis): 4 µg/mL (≈ 10.6 µM) | MIC (Streptococcus pneumoniae): 0.5 µg/mL (≈ 1.33 µM) | MIC (Haemophilus influenzae): > 16 µg/mL | ED50 (Mus musculus [3]): 3.8 mg/kg/day | MIC (Staphylococcus aureus [4]): 2 µg/mL (≈ 5.31 µM) | MIC [5]: 1 µg/mL (≈ 2.66 µM)

COC(=O)c1cn(-c2ccc(N3C[C@H](CNC(C)=O)OC3=O)cc2F)nn1
MIC (Staphylococcus aureus [1]): 4 µg/mL (≈ 10.6 µM) | MIC (Moraxella catarrhalis): 16 µg/mL (≈ 42.4 µM) | MIC (Enterococcus faecalis): 4 µg/mL (≈ 10.6 µM) | ED50 (Mus musculus [6]): 15.3 mg/kg/day | MIC (Streptococcus pneumoniae): 1 µg/mL (≈ 2.65 µM) | MIC (Haemophilus influenzae): > 16 µg/mL | ED50 (Mus musculus [7]): > 20 mg/kg/day | MIC (Staphylococcus aureus [4]): 4 µg/mL (≈ 10.6 µM) | MIC [5]: 2 µg/mL (≈ 5.3 µM)

CC(=O)NC[C@H]1CN(c2ccc(-n3cccc3)c(F)c2)C(=O)O1
ED50 (Mus musculus [8]): 13.2 mg/kg/day | ED50 (Mus musculus [9]): 2.7 mg/kg/day | MIC (Staphylococcus aureus [1]): 1 µg/mL (≈ 3.15 µM) | MIC (Moraxella catarrhalis): 2 µg/mL (≈ 6.3 µM) | MIC (Enterococcus faecalis): 1 µg/mL (≈ 3.15 µM) | MIC (Streptococcus pneumoniae): ≤ 0.5 µg/mL | MIC (Haemophilus influenzae): 4 µg/mL (≈ 12.6 µM) | MIC (Staphylococcus aureus [4]): 1 µg/mL (≈ 3.15 µM) | MIC [5]: ≤ 0.5 µg/mL

CC(=O)NC[C@H]1CN(c2ccc(-n3cc(/C(C)=N\O)nn3)c(F)c2)C(=O)O1
MIC (Staphylococcus aureus [1]): 4 µg/mL (≈ 10.6 µM) | MIC (Moraxella catarrhalis): 4 µg/mL (≈ 10.6 µM) | MIC (Enterococcus faecalis): 8 µg/mL (≈ 21.3 µM) | MIC (Streptococcus pneumoniae): 0.5 µg/mL (≈ 1.33 µM) | MIC (Haemophilus influenzae): 16 µg/mL (≈ 42.5 µM) | MIC (Staphylococcus aureus [4]): 4 µg/mL (≈ 10.6 µM) | MIC [5]: 2 µg/mL (≈ 5.31 µM)

CC(=O)NC[C@H]1CN(c2ccc(-n3ccc(/C(C)=N\O)c3)c(F)c2)C(=O)O1
MIC (Staphylococcus aureus [1]): 2 µg/mL (≈ 5.34 µM) | MIC (Moraxella catarrhalis): 2 µg/mL (≈ 5.34 µM) | MIC (Enterococcus faecalis): 1 µg/mL (≈ 2.67 µM) | MIC (Streptococcus pneumoniae): 0.25 µg/mL (≈ 0.668 µM) | MIC (Haemophilus influenzae): 8 µg/mL (≈ 21.4 µM) | ED50 (Mus musculus [7]): 15 mg/kg/day | MIC (Staphylococcus aureus [4]): 1 µg/mL (≈ 2.67 µM) | ED50 (Mus musculus [10]): 10 mg/kg/day | MIC [5]: 0.5 µg/mL (≈ 1.34 µM)

CC(=O)NC[C@H]1CN(c2ccc(-n3cnnn3)c(F)c2)C(=O)O1
MIC (Staphylococcus aureus [1]): 4 µg/mL (≈ 12.5 µM) | MIC (Moraxella catarrhalis): 16 µg/mL (≈ 50 µM) | MIC (Enterococcus faecalis): 2 µg/mL (≈ 6.24 µM) | MIC (Streptococcus pneumoniae): 1 µg/mL (≈ 3.12 µM) | ED50 (Mus musculus [11]): > 20 mg/kg/day | MIC (Haemophilus influenzae): 16 µg/mL (≈ 50 µM) | ED50 (Mus musculus [12]): 7.8 mg/kg/day | MIC (Staphylococcus aureus [4]): 2 µg/mL (≈ 6.24 µM) | MIC [5]: 2 µg/mL (≈ 6.24 µM)

CC(=O)NC[C@H]1CN(c2ccc(-n3cc(C(C)=O)nn3)c(F)c2)C(=O)O1
ED50 (Mus musculus [13]): 8.8 mg/kg/day | MIC (Staphylococcus aureus [1]): 1 µg/mL (≈ 2.77 µM) | MIC (Moraxella catarrhalis): 8 µg/mL (≈ 22.1 µM) | MIC (Enterococcus faecalis): 2 µg/mL (≈ 5.54 µM) | MIC (Streptococcus pneumoniae): 0.5 µg/mL (≈ 1.38 µM) | ED50 (Mus musculus [14]): 4.4 mg/kg/day | MIC (Haemophilus influenzae): 8 µg/mL (≈ 22.1 µM) | MIC (Staphylococcus aureus [4]): 1 µg/mL (≈ 2.77 µM) | MIC [5]: 1 µg/mL (≈ 2.77 µM)

CO/N=C\c1ccn(-c2ccc(N3C[C@H](CNC(C)=O)OC3=O)cc2F)c1
ED50 (Mus musculus [15]): 7.3 mg/kg/day | MIC (Staphylococcus aureus [1]): 1 µg/mL (≈ 2.67 µM) | MIC (Moraxella catarrhalis): 16 µg/mL (≈ 42.7 µM) | ED50 (Mus musculus [16]): 3.5 mg/kg/day | MIC (Enterococcus faecalis): 1 µg/mL (≈ 2.67 µM) | MIC (Streptococcus pneumoniae): 0.25 µg/mL (≈ 0.668 µM) | MIC (Haemophilus influenzae): 16 µg/mL (≈ 42.7 µM) | MIC (Staphylococcus aureus [4]): 1 µg/mL (≈ 2.67 µM) | MIC [5]: 0.5 µg/mL (≈ 1.34 µM)

CC(=O)NC[C@H]1CN(c2ccc(-n3ccnc3)c(F)c2)C(=O)O1
ED50 (Mus musculus [17]): 2.2 mg/kg/day | MIC (Staphylococcus aureus [1]): 2 µg/mL (≈ 6.28 µM) | MIC (Moraxella catarrhalis): 4 µg/mL (≈ 12.6 µM) | ED50 (Mus musculus [18]): 9.5 mg/kg/day | MIC (Enterococcus faecalis): 2 µg/mL (≈ 6.28 µM) | MIC (Streptococcus pneumoniae): ≤ 0.5 µg/mL | MIC (Haemophilus influenzae): 8 µg/mL (≈ 25.1 µM) | MIC (Staphylococcus aureus [4]): 1 µg/mL (≈ 3.14 µM) | MIC [5]: ≤ 0.5 µg/mL

CC(=O)NC[C@H]1CN(c2ccc(-n3ccc(CCCNS(C)(=O)=O)c3)c(F)c2)C(=O)O1
ED50 (Mus musculus [19]): > 20 mg/kg/day | MIC (Staphylococcus aureus [1]): 8 µg/mL (≈ 17.7 µM) | MIC (Moraxella catarrhalis): 8 µg/mL (≈ 17.7 µM) | MIC (Enterococcus faecalis): 2 µg/mL (≈ 4.42 µM) | MIC (Streptococcus pneumoniae): 0.5 µg/mL (≈ 1.1 µM) | MIC (Haemophilus influenzae): > 16 µg/mL | MIC (Staphylococcus aureus [4]): 4 µg/mL (≈ 8.84 µM) | ED50 (Mus musculus [20]): 1.8 mg/kg/day | MIC [5]: 2 µg/mL (≈ 4.42 µM)

CC(=O)NC[C@H]1CN(c2ccc(N3CCN(C(=O)CO)CC3)c(F)c2)C(=O)O1 [EPEREZOLID]
ED50 (Mus musculus [21]): 3.9 mg/kg/day | ED50 (Mus musculus [22]): 1.9 mg/kg/day

CC(=O)NC[C@H]1CN(c2ccc(N3CCOCC3)c(F)c2)C(=O)O1 [LINEZOLID]
ED50 (Mus musculus [21]): 3.9 mg/kg/day | ED50 (Mus musculus [23]): 5.6 mg/kg/day

CN[C@H](CC(C)C)C(=O)N[C@H]1C(=O)N[C@@H](CC(N)=O)C(=O)N[C@H]2C(=O)N[C@H]3C(=O)N[C@H](C(=O)N[C@H](C(=O)O)c4cc(O)cc(O)c4-c4cc3ccc4O)[C@H](O)c3ccc(c(Cl)c3)Oc3cc2cc(c3O[C@@H]2O[C@H](CO)[C@@H](O)[C@H](O)[C@H]2O[C@H]2C[C@](C)(N)[C@H](O)[C@H](C)O2)Oc2ccc(cc2Cl)[C@H]1O [VANCOMYCIN]
ED50 (Mus musculus [24]): 3.9 mg/kg/day
